Converted amounts (≈) assume the structure as drawn. Where two headings read alike, the source gives them in different places.
What was measured:
[1] = tested on: Staph. aureus 152 (pen. sens); assay: MIC against veterinary bacteria in vitro (Diagnostic Sensitivity Test Agar); conditions: Staphylococcus aureus, 18 h
Protocol: (§2) The activity of the normonyl derivatives of the Examples against various veterinarily important bacteria, was assayed in vitro using two-fold serial dilutions in Diagnostic Sensitivity Test Agar inoculated with 10^4 organisms.

[2] = tested on: Corynebacterium pyogenes CY1; assay: as above; conditions: CY1, 18 h
Protocol: as §2

[3] = tested on: M. hyopneumoniae J2206/183^b; assay: MIC against Mycoplasma in vitro (Friis broth with agarose); format: cell-based; conditions: Mesomycoplasma hyopneumoniae, 144 h; M. hyopneumoniae J2206/183^b; 6 days at 37° C; read-out: MIC
[4] = tested on: M. hyosynoviae ATCC 25591; assay: as above; format: cell-based; conditions: 144 h; M. hyosynoviae ATCC 25591; 6 days at 37° C; read-out: MIC
[5] = tested on: Strep. uberis SPU1; assay: MIC against veterinary bacteria in vitro (Diagnostic Sensitivity Test Agar); conditions: Streptococcus uberis, SPU1, 18 h
Protocol: as §2

[6] = tested on: Bord. bronchiseptica B09; assay: as above; conditions: Bordetella bronchiseptica, B09, 18 h
Protocol: as §2

[7] = tested on: Erysipelothrix rhusiopathiae NCTC 8163; assay: as above; conditions: NCTC8163, 18 h
Protocol: as §2

[8] = tested on: M. bovis NCTC 10131; assay: microbe, parasite or virus in culture; format: cell-based; conditions: NCTC10131, 144 h
[9] = tested on: E. coli E1; assay: MIC against veterinary bacteria in vitro (Diagnostic Sensitivity Test Agar); conditions: Escherichia coli, E1, 18 h
Protocol: as §2

[10] = tested on: Strep. agalactiae SPA1; assay: as above; conditions: Streptococcus agalactiae, SPA1, 18 h
Protocol: as §2

[11] = tested on: M. hyopneumoniae TAM 6N; assay: MIC against Mycoplasma in vitro (Friis broth with agarose); format: cell-based; conditions: Mesomycoplasma hyopneumoniae, TAM6N, 144 h
[12] = tested on: M. hyopneumoniae ATCC 25095; assay: as above; format: cell-based; conditions: Mesomycoplasma hyopneumoniae, ATCC25095, 144 h; M. hyopneumoniae ATCC 25095; 6 days at 37° C; read-out: MIC
[13] = tested on: S. dublin S7; assay: MIC against veterinary bacteria in vitro (Diagnostic Sensitivity Test Agar); conditions: Salmonella enterica, S7, 18 h
Protocol: as §2

[14] = tested on: Bacillus subtilis 6633; assay: MIC against human bacteria in vitro (nutrient agar, chocolated horse blood); format: cell-based; conditions: human; Bacillus subtilis 6633; 18 hours at 37° C; read-out: MIC
Protocol: (§1) The activity of the normonyl derivaties of the Examples against various bacteria which are important in diseases of humans, was assayed in vitro using serial dilutions in nurient agar with 5% chocolated horse blood.

[15] = tested on: Strep. spp. 64/848-C; assay: as above; format: cell-based; conditions: human; Strep. spp. 64/848-C; 18 hours at 37° C; read-out: MIC
Protocol: as §1

[16] = tested on: Haemophilus influenzae Wy21; assay: as above; format: cell-based
Protocol: as §1

[17] = tested on: Staph. aureus W2827; assay: as above; format: cell-based; conditions: Staphylococcus aureus; human; Staph. aureus W2827; 18 hours at 37° C; read-out: MIC
Protocol: as §1

[18] = tested on: Corynebacterium xerosis 9755; assay: as above; format: cell-based; conditions: human; Corynebacterium xerosis 9755; 18 hours at 37° C; read-out: MIC
Protocol: as §1

[19] = tested on: E. coli ESS; assay: as above; format: cell-based; conditions: Escherichia coli; human; E. coli ESS; 18 hours at 37° C; read-out: MIC
Protocol: as §1

[20] = tested on: Strep. faecalis I; assay: as above; format: cell-based; conditions: Enterococcus faecalis; human; Strep. faecalis I; 18 hours at 37° C; read-out: MIC
Protocol: as §1

[21] = tested on: K. aerogenes A; assay: as above; format: cell-based; conditions: Klebsiella aerogenes; human; K. aerogenes A; 18 hours at 37° C; read-out: MIC
Protocol: as §1

[22] = tested on: Ps. aeruginosa NCTC 10662; assay: as above; format: cell-based; conditions: Pseudomonas aeruginosa, NCTC10662; human; Ps. aeruginosa NCTC 10662; 18 hours at 37° C; read-out: MIC
Protocol: as §1

[23] = tested on: Staph. aureus Russell; assay: as above; format: cell-based; conditions: Staphylococcus aureus; human; Staph. aureus Russell; 18 hours at 37° C; read-out: MIC
Protocol: as §1

[24] = tested on: Strep. pyogenes R80/421-A; assay: as above; format: cell-based; conditions: Streptococcus pyogenes; human; Strep. pyogenes R80/421-A; 18 hours at 37° C; read-out: MIC
Protocol: as §1

[25] = tested on: P. mirabilis 889; assay: as above; format: cell-based; conditions: Proteus mirabilis; human; P. mirabilis 889; 18 hours at 37° C; read-out: MIC
Protocol: as §1

[26] = tested on: Strep. agalactiae 2788-B; assay: as above; format: cell-based; conditions: Streptococcus agalactiae; human; Strep. agalactiae 2788-B; 18 hours at 37° C; read-out: MIC
Protocol: as §1

[27] = tested on: E. coli NCTC 10418; assay: as above; format: cell-based; conditions: Escherichia coli, NCTC10418; human; E. coli NCTC 10418; 18 hours at 37° C; read-out: MIC
Protocol: as §1

[28] = tested on: Staph. aureus Oxford; assay: as above; format: cell-based; conditions: Staphylococcus aureus; human; Staph. aureus Oxford; 18 hours at 37° C; read-out: MIC
Protocol: as §1

[29] = tested on: Pasteurella multocida 1633; assay: as above; format: cell-based; conditions: human; Pasteurella multocida 1633; 18 hours at 37° C; read-out: MIC
Protocol: as §1

[30] = tested on: M. hyopneumoniae NCTC 101101; assay: MIC against Mycoplasma in vitro (Friis broth with agarose); format: cell-based; conditions: Mesomycoplasma hyopneumoniae, NCTC101101, 144 h
[31] = tested on: M. hyopneumoniae UCD 1; assay: as above; format: cell-based; conditions: Mesomycoplasma hyopneumoniae, UCD1, 144 h; M. hyopneumoniae UCD 1; 6 days at 37° C; read-out: MIC
[32] = tested on: E. coli NCTC 10418; assay: MIC against veterinary bacteria in vitro (Diagnostic Sensitivity Test Agar); conditions: Escherichia coli, NCTC10418, 18 h
Protocol: as §2

[33] = tested on: Sarcina lutea 8340; assay: MIC against human bacteria in vitro (nutrient agar, chocolated horse blood); format: cell-based; conditions: Micrococcus luteus; human; Sarcina lutea 8340; 18 hours at 37° C; read-out: MIC
Protocol: as §1

[34] = Haemophilus influenzae, WY21, 18 h
[35] = M. hyopneumoniae TAM 6N, 6 days at 37° C, read-out: MIC
[36] = M. hyopneumoniae NCTC 101101, 6 days at 37° C, read-out: MIC

## CC(=Cc1nnc(-c2cccc([N+](=O)[O-])c2)o1)CC1OCC(CC2OC2C(C)C(C)O)C(O)C1O (stereo not shown) [Example 2, 2-m-Nitrophenyl-5-(1-normon-2-yl)-1,3,4-oxadiazole A]
[1]
  MIC: 10 µg/mL (≈ 20.4 µM)
[2]
  MIC: > 80 µg/mL
[3]
  MIC: 0.025 µg/mL (≈ 0.0511 µM)
[4]
  MIC: 0.5 µg/mL (≈ 1.02 µM)
[5]
  MIC: 2.5 µg/mL (≈ 5.11 µM)
[6]
  MIC: 80 µg/mL (≈ 163 µM)
[7]
  MIC: 40 µg/mL (≈ 81.7 µM)
[8]
  MIC: 0.025 µg/mL (≈ 0.0511 µM)
[9]
  MIC: > 80 µg/mL
[10]
  MIC: 10 µg/mL (≈ 20.4 µM)
[11]
  MIC: 0.05 µg/mL (≈ 0.102 µM)
[12]
  MIC: 0.025 µg/mL (≈ 0.0511 µM)
[13]
  MIC: > 80 µg/mL
[14]
  MIC: 4 µg/mL (≈ 8.17 µM)
[15]
  MIC: 32 µg/mL (≈ 65.4 µM)
[16]; [34]
  MIC: 0.5 µg/mL (≈ 1.02 µM)
[17]
  MIC: 64 µg/mL (≈ 131 µM)
[18]
  MIC: > 128 µg/mL
[19]
  MIC: 4 µg/mL (≈ 8.17 µM)
[20]
  MIC: > 128 µg/mL
[21]
  MIC: > 128 µg/mL
[22]
  MIC: > 128 µg/mL
[23]
  MIC: 64 µg/mL (≈ 131 µM)
[24]
  MIC: 4 µg/mL (≈ 8.17 µM)
[25]
  MIC: > 128 µg/mL
[26]
  MIC: 32 µg/mL (≈ 65.4 µM)
[27]
  MIC: > 128 µg/mL
[28]
  MIC: 16 µg/mL (≈ 32.7 µM)
[29]
  MIC: 2 µg/mL (≈ 4.09 µM)
[30]
  MIC: 0.05 µg/mL (≈ 0.102 µM)
[31]
  MIC: 0.025 µg/mL (≈ 0.0511 µM)
[32]
  MIC: > 80 µg/mL

## CC(=Cc1nnc(-c2ccncc2)o1)CC1OCC(CC2OC2C(C)C(C)O)C(O)C1O (stereo not shown) [Example 7, 2-(1-Normon-2-yl)-5-(4-pyridyl)-1,3,4-oxadiazole A]
[1]
  MIC: 10 µg/mL (≈ 22.4 µM)
[2]
  MIC: > 80 µg/mL
[3]
  MIC: 2.5 µg/mL (≈ 5.61 µM)
[4]
  MIC: 0.5 µg/mL (≈ 1.12 µM)
[5]
  MIC: 2.5 µg/mL (≈ 5.61 µM)
[6]
  MIC: 20 µg/mL (≈ 44.9 µM)
[7]
  MIC: 80 µg/mL (≈ 180 µM)
[8]
  MIC: 0.025 µg/mL (≈ 0.0561 µM)
[9]
  MIC: > 80 µg/mL
[10]
  MIC: 20 µg/mL (≈ 44.9 µM)
[11]; [35]
  MIC: 2.5 µg/mL (≈ 5.61 µM)
[13]
  MIC: > 80 µg/mL
[14]
  MIC: 2 µg/mL (≈ 4.49 µM)
[15]
  MIC: 8 µg/mL (≈ 18 µM)
[16]; [34]
  MIC: 1 µg/mL (≈ 2.24 µM)
[33]
  MIC: > 128 µg/mL
[17]
  MIC: 32 µg/mL (≈ 71.8 µM)
[19]
  MIC: 64 µg/mL (≈ 144 µM)
[20]
  MIC: > 128 µg/mL
[21]
  MIC: 128 µg/mL (≈ 287 µM)
[22]
  MIC: > 128 µg/mL
[23]
  MIC: 32 µg/mL (≈ 71.8 µM)
[26]
  MIC: 8 µg/mL (≈ 18 µM)
[27]
  MIC: > 128 µg/mL
[28]
  MIC: 2 µg/mL (≈ 4.49 µM)
[29]
  MIC: > 128 µg/mL
[30]; [36]
  MIC: 2.5 µg/mL (≈ 5.61 µM)
[31]
  MIC: 1 µg/mL (≈ 2.24 µM)
[32]
  MIC: > 80 µg/mL

## CC(=Cc1nnc(-c2ccco2)o1)CC1OCC(CC2OC2C(C)C(C)O)C(O)C1O (stereo not shown) [Example 8, 2-(2-Furyl)-5-(1-normon-2-yl)-1,3,4-oxadiazole A]
[1]
  MIC: 40 µg/mL (≈ 92.1 µM)
[2]
  MIC: > 80 µg/mL
[3]
  MIC: 10 µg/mL (≈ 23 µM)
[4]
  MIC: 2.5 µg/mL (≈ 5.75 µM)
[5]
  MIC: 10 µg/mL (≈ 23 µM)
[6]
  MIC: 80 µg/mL (≈ 184 µM)
[7]
  MIC: > 80 µg/mL
[8]
  MIC: 0.1 µg/mL (≈ 0.23 µM)
[9]
  MIC: > 80 µg/mL
[10]
  MIC: > 80 µg/mL
[11]; [35]
  MIC: 10 µg/mL (≈ 23 µM)
[13]
  MIC: > 80 µg/mL
[14]
  MIC: 4 µg/mL (≈ 9.21 µM)
[15]
  MIC: 32 µg/mL (≈ 73.6 µM)
[16]; human, Haemophilus influenzae Wy21, 18 hours at 37° C, read-out: MIC
  MIC: 0.25 µg/mL (≈ 0.575 µM)
[33]
  MIC: > 128 µg/mL
[17]
  MIC: 32 µg/mL (≈ 73.6 µM)
[19]
  MIC: 8 µg/mL (≈ 18.4 µM)
[20]
  MIC: > 128 µg/mL
[21]
  MIC: > 128 µg/mL
[22]
  MIC: > 128 µg/mL
[23]
  MIC: 64 µg/mL (≈ 147 µM)
[25]
  MIC: > 128 µg/mL
[26]
  MIC: 32 µg/mL (≈ 73.6 µM)
[27]
  MIC: > 128 µg/mL
[28]
  MIC: 4 µg/mL (≈ 9.21 µM)
[29]
  MIC: 1 µg/mL (≈ 2.3 µM)
[30]; [36]
  MIC: 10 µg/mL (≈ 23 µM)
[31]
  MIC: 5 µg/mL (≈ 11.5 µM)
[32]
  MIC: > 80 µg/mL

Reference: US4861788A, “Antibacterial 1-normon-2-yl-heterocyclic compounds” (Beecham Group plc, priority 1983, dated 1989)
